Literature values in US7378418B2, “Azabicyclic heterocycles as cannabinoid receptor modulators” (Bristol-Myers Squibb Company, priority 2003, dated 2008).

Legend:
human subjects = details: 16 week trial period, published Phase IIb data
[1] = chronic administration for two weeks (Hildebrandt et al. 2003)

Row | SMILES | body weight (human subjects) | body weight [1]
1 | Cc1c(C(=O)NN2CCCCC2)nn(-c2ccc(Cl)cc2Cl)c1-c1ccc(Cl)cc1 [SR-141716] | dose-dependently reduced body weight | 
2 | Cc1c(C(=O)NN2CCCCC2)nn(-c2ccc(Cl)cc2Cl)c1-c1ccc(I)cc1 [AM-251] |  | substantial body weight reduction
